Laboratory results: patent US10252987B2, “Type of antiviral compound” (Institute of Medicinal Biotechnology, Chinese Academy of …, priority 2015, dated 2019)

System: HCV
Assay: anti-HCV activity assay in cell culture (HCV RNA by one-step quantitative RT-PCR)
Assay type: cell-based
Conditions: Hepatitis C virus, Huh7.5, 96 h, compound at 10 μmol/L; Huh7.5 cells infected with HCV virus particles; cultured 96 hrs; HCV RNA in cells vs virus control group; read-out: percent inhibition (%)
Protocol: The assay results of anti-HCV activity of the compound synthesized according to the present invention in cell culture are shown in Table 1, wherein the molecular weight is calculated by ChemBioDraw 12.0 software from the molecular structure of each compound.
100 μL Huh7.5 cells were seeded in 96-well cell culture plate to 1×10^5/mL density, cultured in an incubator at 37° C. under the condition of 5% CO2 and saturated humidity for 6 hrs. Huh7.5 cells were then infected by viral solution containing HCV virus particles, and solutions of compound of the present invention at a concentration of 10 μmol/L liquid were added respectively, cultured for further 96 hrs, and then total RNA was extracted from the cells. Amount of HCV RNA in cells was determined by one-step quantitative RT-PCR, and compared to RNA levels of the virus control group to calculate the inhibition rate of compounds on HCV.

Point of comparison: Cc1cccc(NCc2nc(N(C)CCN(C)C)ccc2C#N)c1 [Compound 40, 6-((2-(dimethylamino)ethyl)(methyl)amino)-2-((3-methylphenyl)amino)methyl-3-cyanopyridine], inhibition at 10 µM 84%. Against it:
- CN(C)CN(C)c1ccc(C#N)c(CN(C)c2ccc(C(C)(C)C)cc2)c1 [Compound 33, 2-((4-tert-butylphenyl)(methyl)amino)methyl-4-(((dimethylamino)methyl)(methyl)amino)benzonitrile] — higher, 89%
- N#Cc1ccc(NCCN2CCCCC2)nc1CNCCCc1ccc(C2CCCC2)cc1 [Compound 34, 2-(((4-cyclopentylphenyl)propylamino)methyl)-6-(2-(piperidin-1-yl)ethyl)amino-3-cyanopyridine] — lower, 76%
- CN1CCN(c2ccc(C#N)c(CNc3ccc(C4CCCC4)cc3)n2)CC1 [Compound 35, 6-(4-methylpiperazin-1-yl)-2-((4-cyclopentylphenylamino)methyl)-3-cyanopyridine] — lower, 80%
- COc1ccc(NCc2nc(N3CCN(C)CC3)ccc2C#N)cc1 [Compound 36, 2-((4-methoxyphenyl)amino)methyl-6-(4-methylpiperazin-1-yl)-3-cyanopyridine] — lower, 75%
- Cc1ccc(NCc2nc(N3CCN(C)CC3)ccc2C#N)cc1 [Compound 37, 2-((4-methylphenyl)amino)methyl-6-(4-methylpiperazin-1-yl)-3-cyanopyridine] — lower, 72%
- COc1ccc(NCc2nc(N(C)CCN(C)C)ccc2C#N)cc1 [Compound 38, 6-((2-(dimethylamino)ethyl)(methyl)amino)-2-((4-methoxyphenyl)amino)methyl-3-cyanopyridine] — lower, 70%
- CCCN1CCN(c2ccc(C#N)c(CN(CC)c3ccc(Sc4ccccc4)cc3)n2)CC1 [Compound 41, 2-((4-(phenylthio)phenyl)(ethyl)amino)methyl-6-(4-propylpiperazin-1-yl)-3-cyanopyridine] — lower, 57%
- CN1CCN(c2ccc(C#N)c(CNc3ccc(Br)cc3)c2)CC1 [Compound 42, 2-(((4-bromophenyl)amino)methyl)-4-(4-methylpiperazin-1-yl)benzonitrile] — higher, 87%
- COc1ccc(N2CCN(Cc3cc(NCN4CCCCC4)ccc3C#N)CC2)cc1 [VI-2, 4-(((piperidin-1-yl)methyl)amino)-2-(4-(4-methoxyphenyl)piperazin-1-yl)methylbenzonitrile] — lower, 62%
- COc1ccc(N2CCN(Cc3cc(N4CCN(C)CC4)ccc3C#N)CC2)cc1 [VI-3, 4-((4-methyl)piperazin-1-yl)-2-(4-(4-methoxyphenyl)piperazin-1-yl)methylbenzonitrile] — higher, 91%
- Cc1ccc(N2CCN(Cc3cc(N4CCN(C)CC4)ccc3C#N)CC2)cc1 [VI-4, 4-((4-methyl)piperazin-1-yl)-2-(4-(4-methylphenyl)piperazin-1-yl)methylbenzonitrile] — higher, 98%
- COc1ccc(N2CCN(Cc3cc(N4CCNCC4)ccc3C#N)CC2)cc1 [VI-5, 4-(piperazin-1-yl)-2-(4-(4-methoxyphenyl)piperazin-1-yl)methylbenzonitrile] — lower, 79%
- Cc1ccc(N2CCN(Cc3cc(N4CCNCC4)ccc3C#N)CC2)cc1 [VI-6, 4-(piperazin-1-yl)-2-(4-(4-methylphenyl)piperazin-1-yl)methylbenzonitrile] — higher, 88%
- Cc1ccc(N2CCN(Cc3cc(N4CCCC(N)C4)ccc3C#N)CC2)cc1 (stereo not shown) [VI-7, 4-(3-aminopiperidin-1-yl)-2-((4-(4-methylphenyl)piperazin-1-yl)methyl)benzonitrile] — lower, 71%
- CN1CCN(c2ccc(C#N)c(CN3CCN(c4ccc(Cl)cc4)CC3)c2)CC1 [VI-9, 4-(4-methylpiperazin-1-yl)-2-(4-(4-chlorophenyl)piperazin-1-yl)methylbenzonitrile] — higher, 92%
- N#Cc1ccc(N2CCNCC2)cc1CN1CCN(c2ccc(Cl)cc2)CC1 [VI-10, 4-(piperazin-1-yl)-2-(4-(4-chlorophenyl)piperazin-1-yl)methylbenzonitrile] — lower, 73%
- Cc1ccc(N2CCN(Cc3cc(N4CCN(C)CC4)ccc3C#N)CC2)cc1C [VI-11, 4-(4-methylpiperazin-1-yl)-2-(4-(3,4-dimethylphenyl)piperazin-1-yl)methylbenzonitrile] — lower, 80%
- CN1CCN(c2ccc(C#N)c(CN3CCN(c4ccc(C5CCCCC5)cc4)CC3)c2)CC1 [VI-12, 4-(4-methylpiperazin-1-yl)-2-(4-(4-cyclohexylphenyl)piperazin-1-yl)methylbenzonitrile] — higher, 86%
- CN1CCN(c2ccc(C#N)c(CN3CCN(c4ccc(C(C)(C)C)cc4)CC3)c2)CC1 [VI-13, 4-(4-methylpiperazin-1-yl)-2-(4-(4-tert-butylphenyl)piperazin-1-yl)methylbenzonitrile] — higher, 90%
- CCc1ccc(N2CCN(Cc3cc(N4CCN(C)CC4)ccc3C#N)CC2)cc1 [VI-14, 4-(4-methylpiperazin-1-yl)-2-(4-(4-ethylphenyl)piperazin-1-yl)methylbenzonitrile] — higher, 88%
- Cc1cc(N2CCN(Cc3cc(N4CCNCC4)ccc3C#N)CC2)ccc1Cl [VI-15, 4-(piperazin-1-yl)-2-(4-(3-methyl4-chlorophenyl)piperazin-1-yl)methylbenzonitrile] — higher, 95%
- CC(C)c1ccc(N2CCN(Cc3cc(N4CCN(C)CC4)ccc3C#N)CC2)cc1 [VI-16, 4-(4-methylpiperazin-1-yl)-2-(4-(4-isopropylphenyl)piperazin-1-yl)methylbenzonitrile] — lower, 68%
- CSc1ccc(N2CCN(Cc3cc(N4CCN(C)CC4)ccc3C#N)CC2)cc1 [VI-17, 4-(4-methylpiperazin-1-yl)-2-(4-(4-(methylthio)phenyl)piperazin-1-yl)methylbenzonitrile] — lower, 70%
- CN1CCN(c2ccc(C#N)c(CN3CCN(c4ccc(O)cc4)CC3)c2)CC1 [VI-19, 4-(4-methylpiperazin-1-yl)-2-(4-(4-hydroxylphenyl)piperazin-1-yl)methylbenzonitrile] — lower, 67%
- CNc1ccc(N2CCN(Cc3cc(N4CCN(C)CC4)ccc3C#N)CC2)cc1 [VI-20, 4-(4-methylpiperazin-1-yl)-2-(4-(4-methylaminophenyl)piperazin-1-yl)methylbenzonitrile] — lower, 78%
- CN1CCN(c2ccc(C#N)c(CN3CCN(c4ccc(N(C)C)cc4)CC3)c2)CC1 [VI-21, 4-(4-methylpiperazin-1-yl)-2-(4-(4-dimethylaminophenyl)piperazin-1-yl)methylbenzonitrile] — lower, 65%
- CN(C)CCN(C)c1ccc(C#N)c(CN2CCN(c3ccc(N4CCCC4)cc3)CC2)c1 [VI-22, 4-((2-(dimethylamino)ethyl)(methyl)amino)-2-(4-(4-(pyrrolidin-1-yl)phenyl)piperazin-1-yl)methylbenzonitrile] — lower, 83%
- Cc1cc(C2CCN(Cc3cc(N4CCN(C)CC4)ccc3C#N)CC2)ccc1C#N [VI-23, 4-(4-methylpiperazin-1-yl)-2-(4-(3-methyl-4-cyanophenyl)piperidin-1-yl)methylbenzonitrile] — lower, 77%
- CN1CCN(c2ccc(C#N)c(CN3CCN(c4ccc(C5CCCC5)cc4)CC3)c2)CC1 [VI-24, 4-(4-methylpiperazin-1-yl)-2-(4-(4-cyclopentylphenyl)piperazin-1-yl)methylbenzonitrile] — lower, 59%

Same assay, conditions: compound at 10 μmol/L; Huh7.5 cells infected with HCV virus particles; cultured 96 hrs; HCV RNA in cells vs virus control group

Point of comparison: CN(C)CCNc1ccc(C#N)c(CN2CCN(c3ccc(C(F)(F)F)cc3)CC2)c1 [VI-28, 4-(N′,N′-dimethyl-1,2-ethylenediamin-1-yl)-2-(4-p-trifluoromethylphenyl-piperazin-1-yl)methylbenzonitrile], “percent inhibition (%)” value 79%. Against it:
- COc1cc(NCc2nc(N(C)CCN(C)C)ccc2C#N)cc(OC)c1 [Compound 39] — lower, 75%
- COc1ccc(N2CCN(Cc3cc(NCCN(C)C)ccc3C#N)CC2)cc1 [VI-1] — higher, 99%
- N#Cc1ccc(N2CCNCC2)cc1CN1CCN(c2ccccc2)CC1 [VI-8, 4-(piperazin-1-yl)-2-(4-(4-phenyl)piperazin-1-yl)methylbenzonitrile] — higher, 82%
- CN1CCN(c2ccc(C#N)c(CN3CCN(c4ccc(Br)cc4)CC3)c2)CC1 [VI-18, 4-(4-methylpiperazin-1-yl)-2-(4-(4-bromophenyl)piperazin-1-yl)methylbenzonitrile] — higher, 86%
- COc1ccc(N2CCN(Cc3cc(N4C(C)CNCC4C)ccc3C#N)CC2)cc1 (stereo not shown) [VI-25] — lower, 67%
- Cc1ccc(N2CCN(Cc3cc(NCCCN(C)C)ccc3C#N)CC2)cc1 [VI-26, 4-(N′,N′-dimethyl-1,3-propanediamin-1-yl)-2-(4-p-methylphenylpiperazin-1-yl)methylbenzonitrile] — lower, 58%
- CN(C)CCCNc1ccc(C#N)c(CN2CCN(c3ccccc3)CC2)c1 [VI-27, 4-(N′,N′-dimethyl-1,3-propanediamin-1-yl)-2-(4-phenylpiperazin-1-yl)methylbenzonitrile] — lower, 60%
- CN(C)CCCNc1ccc(C#N)c(CN2CCN(c3ccc(Cl)cc3)CC2)c1 [VI-29, 4-(N′,N′-dimethyl-1,3-propanediamin-1-yl)-2-(4-p-chlorophenylpiperazin-1-yl)methylbenzonitrile] — higher, 80%
- COc1ccc(N2CCN(Cc3cc(NCCN(C)C)ccc3C#N)CC2)cc1 [VI-30, 4-(N′,N′-dimethyl-1,2-ethylenediamin-1-yl)-2-(4-p-methoxyphenylpiperazin-1-yl)methylbenzonitrile] — lower, 66%
